Tested on: 695427-040-R-J1-PDC complex spheroid viability
Experiment: Anticancer human tumor 695427-040-R-J1-PDC patient-derived colon adenocarcinoma cell line growth inhibition [POLQ]
Details: for IC50: curve of first compound; for viability, T/C: stronger effect = lower value
Method in brief: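 PDC + HUVEC + MSC complex spheroids; POLQ inhibitors ± partner drugs; top conc. at/near clinical Cmax, else 10 microM (SN-38 1 microM), half-log dilutions; 37 degrees C, 5% CO2.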

[1] = second compound 0.0316 µM, first compound 0.0316 µM
[2] = second compound 0.0316 µM, first compound 0.1 µM
[3] = second compound 0.0316 µM, first compound 0.316 µM
[4] = second compound 0.0316 µM, first compound 1 µM
[5] = second compound 0.0316 µM, first compound 3.16 µM
[6] = second compound 0.0316 µM, first compound 10 µM
[7] = second compound 0.1 µM, first compound 0.0316 µM
[8] = second compound 0.1 µM, first compound 0.1 µM
[9] = second compound 0.1 µM, first compound 0.316 µM
[10] = second compound 0.1 µM, first compound 1 µM
[11] = second compound 0.1 µM, first compound 3.16 µM
[12] = second compound 0.1 µM, first compound 10 µM
[13] = second compound 0.316 µM, first compound 0.0316 µM
[14] = second compound 0.316 µM, first compound 0.1 µM
[15] = second compound 0.316 µM, first compound 0.316 µM
[16] = second compound 0.316 µM, first compound 1 µM
[17] = second compound 0.316 µM, first compound 3.16 µM
[18] = second compound 0.316 µM, first compound 10 µM
[19] = second compound 1 µM, first compound 0.0316 µM
[20] = second compound 1 µM, first compound 0.1 µM
[21] = second compound 1 µM, first compound 0.316 µM
[22] = second compound 1 µM, first compound 1 µM
[23] = second compound 1 µM, first compound 3.16 µM
[24] = second compound 1 µM, first compound 10 µM
[25] = second compound 3.16 µM, first compound 0.0316 µM
[26] = second compound 3.16 µM, first compound 0.1 µM
[27] = second compound 3.16 µM, first compound 0.316 µM
[28] = second compound 3.16 µM, first compound 1 µM
[29] = second compound 3.16 µM, first compound 3.16 µM
[30] = second compound 3.16 µM, first compound 10 µM
[31] = second compound 10 µM, first compound 0.0316 µM
[32] = second compound 10 µM, first compound 0.1 µM
[33] = second compound 10 µM, first compound 0.316 µM
[34] = second compound 10 µM, first compound 1 µM
[35] = second compound 10 µM, first compound 3.16 µM
[36] = second compound 10 µM, first compound 10 µM
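Note: spheroids exposed to compounds for seven days.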
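Throughout, for viability, T/C: 100% = DMSO vehicle control viability.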

SMILES: C#Cc1c(F)ccc2cc(O)cc(-c3ncc4c(N5CC6CCC(C5)N6)nc(OCC56CCCN5CC(F)C6)nc4c3F)c12 (stereo unspecified) + COC1C(OC(N)=O)C(O)C(Oc2ccc3c(O)c(NC(=O)c4ccc(O)c(CC=C(C)C)c4)c(=O)oc3c2C)OC1(C)C
- IC50 (second compound 0.0316 µM): > 10 µM
- IC50 (second compound 0.1 µM): > 10 µM
- IC50 (second compound 0.316 µM): > 10 µM
- IC50 (second compound 1 µM): > 10 µM
- IC50 (second compound 3.16 µM): > 10 µM
- IC50 (second compound 10 µM): > 10 µM
- viability, T/C [1]: 113%
- viability, T/C [2]: 99.8%
- viability, T/C [3]: 108%
- viability, T/C [4]: 107%
- viability, T/C [5]: 97.3%
- viability, T/C [6]: 96.5%
- viability, T/C [7]: 110%
- viability, T/C [8]: 97.6%
- viability, T/C [9]: 105%
- viability, T/C [10]: 99.9%
- viability, T/C [11]: 102%
- viability, T/C [12]: 84.7%
- viability, T/C [13]: 107%
- viability, T/C [14]: 101%
- viability, T/C [15]: 98.2%
- viability, T/C [16]: 99.2%
- viability, T/C [17]: 95%
- viability, T/C [18]: 90%
- viability, T/C [19]: 101%
- viability, T/C [20]: 97.9%
- viability, T/C [21]: 108%
- viability, T/C [22]: 97.1%
- viability, T/C [23]: 97.1%
- viability, T/C [24]: 91%
- viability, T/C [25]: 105%
- viability, T/C [26]: 109%
- viability, T/C [27]: 98.7%
- viability, T/C [28]: 94.8%
- viability, T/C [29]: 104%
- viability, T/C [30]: 90.7%
- viability, T/C [31]: 107%
- viability, T/C [32]: 104%
- viability, T/C [33]: 104%
- viability, T/C [34]: 95.6%
- viability, T/C [35]: 101%
- viability, T/C [36]: 80.4%

SMILES: C=CC(=O)N1CCN(c2nc(=O)n(-c3c(C)ccnc3C(C)C)c3nc(-c4c(O)cccc4F)c(F)cc23)C(C)C1 (stereo unspecified) + COC1C(OC(N)=O)C(O)C(Oc2ccc3c(O)c(NC(=O)c4ccc(O)c(CC=C(C)C)c4)c(=O)oc3c2C)OC1(C)C
- IC50 (second compound 0.0316 µM): > 10 µM
- IC50 (second compound 0.1 µM): > 10 µM
- IC50 (second compound 0.316 µM): > 10 µM
- IC50 (second compound 1 µM): > 10 µM
- IC50 (second compound 3.16 µM): > 10 µM
- IC50 (second compound 10 µM): > 10 µM
- viability, T/C [1]: 99.8%
- viability, T/C [2]: 94.9%
- viability, T/C [3]: 97.9%
- viability, T/C [4]: 106%
- viability, T/C [5]: 113%
- viability, T/C [6]: 105%
- viability, T/C [7]: 104%
- viability, T/C [8]: 102%
- viability, T/C [9]: 106%
- viability, T/C [10]: 111%
- viability, T/C [11]: 118%
- viability, T/C [12]: 122%
- viability, T/C [13]: 106%
- viability, T/C [14]: 101%
- viability, T/C [15]: 102%
- viability, T/C [16]: 116%
- viability, T/C [17]: 112%
- viability, T/C [18]: 107%
- viability, T/C [19]: 109%
- viability, T/C [20]: 102%
- viability, T/C [21]: 105%
- viability, T/C [22]: 110%
- viability, T/C [23]: 119%
- viability, T/C [24]: 117%
- viability, T/C [25]: 103%
- viability, T/C [26]: 109%
- viability, T/C [27]: 100%
- viability, T/C [28]: 107%
- viability, T/C [29]: 125%
- viability, T/C [30]: 107%
- viability, T/C [31]: 111%
- viability, T/C [32]: 92.7%
- viability, T/C [33]: 104%
- viability, T/C [34]: 109%
- viability, T/C [35]: 113%
- viability, T/C [36]: 114%

SMILES: CC(C)n1c(=O)n(C)c2cnc3cc(F)c(-c4ccc(OCCCN5CCCCC5)nc4)cc3c21 + COC1C(OC(N)=O)C(O)C(Oc2ccc3c(O)c(NC(=O)c4ccc(O)c(CC=C(C)C)c4)c(=O)oc3c2C)OC1(C)C
- IC50 (second compound 0.0316 µM): > 10 µM
- IC50 (second compound 0.1 µM): > 10 µM
- IC50 (second compound 0.316 µM): > 10 µM
- IC50 (second compound 1 µM): > 10 µM
- IC50 (second compound 3.16 µM): > 10 µM
- IC50 (second compound 10 µM): > 10 µM
- viability, T/C [1]: 99.3%
- viability, T/C [2]: 98.7%
- viability, T/C [3]: 109%
- viability, T/C [4]: 113%
- viability, T/C [5]: 110%
- viability, T/C [6]: 82.6%
- viability, T/C [7]: 114%
- viability, T/C [8]: 101%
- viability, T/C [9]: 112%
- viability, T/C [10]: 118%
- viability, T/C [11]: 101%
- viability, T/C [12]: 80.1%
- viability, T/C [13]: 111%
- viability, T/C [14]: 103%
- viability, T/C [15]: 110%
- viability, T/C [16]: 101%
- viability, T/C [17]: 114%
- viability, T/C [18]: 74.4%
- viability, T/C [19]: 110%
- viability, T/C [20]: 104%
- viability, T/C [21]: 108%
- viability, T/C [22]: 112%
- viability, T/C [23]: 105%
- viability, T/C [24]: 77.2%
- viability, T/C [25]: 106%
- viability, T/C [26]: 102%
- viability, T/C [27]: 103%
- viability, T/C [28]: 109%
- viability, T/C [29]: 102%
- viability, T/C [30]: 79%
- viability, T/C [31]: 106%
- viability, T/C [32]: 99.5%
- viability, T/C [33]: 110%
- viability, T/C [34]: 113%
- viability, T/C [35]: 114%
- viability, T/C [36]: 77.6%

Reference: PubChem BioAssay AID1963840 (Molecular Pharmacology Branch, DTP, NCI, 2024)
